Consider twelve molecules from patent US6943191B1, “Disubstituted lavendustin A analogs and pharmaceutical composition comprising the analogs” (The United States of America as represented by the …, priority 1998, dated 2005).

For one experiment, the system named is K562 cells. Put plainly: K562 cell culture and growth assay, 6 day MTT. Format: cell-based, human. The following applies: K562, 6 days, 4 or more experiments. The procedure:
This example describes the procedure used for cell culture and growth assays. Human leukemia, Philadelphia-chromosome-positive CML cell line K562 was obtained from ATCC (Rockville, Md.). Cells were cultured in RPMI medium containing 10% fetal calf serum, 2 mM glutamine, 100 units/ml of penicillin and 100 μg/ml streptomycin Cells (2×10^3 cells/well) were incubated with increasing concentrations of compounds of the present invention dissolved in DMSO in a final volume of 200 μl in 96-well plates. Control cells were incubated with medium containing identical concentrations of the DMSO solvent. Growth of K562 cells was quantitated after 6 days by ability of living cells to reduce the yellow dye 3-(4,5-dimethylthiazolyl)-2,5-diphenyltetrazolium bromide (MTT) to a blue formazan product. Further information concerning this procedure is provided by Mossman T., “Rapid Colorimetric Assay for Cellular Growth and Survival—Application to Proliferation and Cytotoxicity Assays,” J. Immunol. Methods 1983, 65:55-63, which is incorporated herein by reference.

The next experiment deals with T1, p210^bcr-abl (Homo sapiens, UniProt P00519).
T1 construct: immune complexes containing ^32P-labeled p210^bcr-abl were collected on protein Sepharose beads; BCR (N-terminal part of the breakpoint cluster region protein, natural fusion partner); endogenous in cells; host or cells: K562 cells (lysate, immunoprecipitated on Protein A-Sepharose); the other entry of the earlier key: BCR (P11274, Breakpoint cluster region protein)
The experiment is described as follows: Inhibition of in vitro auto-phosphorylation of p210^bcr-abl, immune-complex kinase assay. Format: biochemical. The following applies: immune complex kinase assay, 3 experiments, read-out: Enzyme Assays IC50 (μM) p210bcl-abl in vitro phosphorylation. The procedure: Inhibition of in vitro auto-phosphorylation of p210^bcr-abl in immune-complex kinase assays were conducted as follows. K562 cell line cells were washed twice in […]. The washed cells were lysed in PLC lysis buffer 150 mM HEPES (pH 7.5), 150 mM NaCl, 10% (v/v) glycerol, 1% (v/v) Triton X-100, 1.5 mM MgCl2, 1 mM EGTA. 10 μg/ml leupeptin, 10 μg/ml aprotinin, 1 mM sodium orthovanadate. 10 mM sodium pyrophosphate, 100 mM sodium fluoride and 1 mM phenylmethyl sulfonyl fluoride| Cell lysates were centrifuged at 100,000 g for 15 minutes and the supernatant collected. Protein concentrations of the clarified supernatants were determined by the Bradford Protein Assay, and the same quantity of protein was immunoprecipitated from control (vehicle-treated) and drug-treated cells. Cell lysates were incubated and gently rocked at 4° C. for 4 hours overnight with antibodies. Immune complexes were collected by incubation with Protein A-Sepharose beads (Pharmacia, Piscataway N.J.) and immune complexes (beads) were washed three times with HNTG buffer [20 mM HEPES (pH 7.5), 10% glycerol, 0.1% Triton X-100, 150 mM NaCl and 1 mM sodium orthovanadate] to remove unbound material. Bound proteins were boiled for 5 minutes in 2×SDS sample buffer (63 mM Tris-HCl, ph 6.8; 10% glycerol; 2% SDS; 0.0025% bromophenol blue: and […] 2 mercaptoethanol) prior to SDS-PAGE. Proteins were resolved on 4-20% gradient mini gels from Novex Experimental Technology (San Diego, Calif.).
After SDS-PAGE, proteins were electrophoretically transferred onto Immobilon polyvinylidene difluoride (PVDF) membranes (Millipore, Bedford, Mass.) at 250 mA for 4 hours at 4° C. using 2× Tris glycine transfer buffer (50 mM Tris, glycine), 20% methanol and 0.1% SDS. Residual binding sites on the membrane were blocked by incubation in TTS (20 mM Tris pH 7.4, 0.9% NaCl and 0.05% Tween 20) containing 3% BSA overnight at 4° C. or for 4 hours at room temperature. Blots were incubated for 1-1.5 hours with TTS containing 0.3% BSA with 1 μg/ml of mouse anti-P-Tyr, 2 μg/ml of mouse anti-Grb2 or 1 μg/ml of rabbit anti-She antibody. Blots were washed three times for 6 minutes each with TTS containing 0.3% BSA and probed with a 1:1000 dilution of rabbit anti-mouse antibody or directly with [^125I]Protein A (Amersham, Arlington Heights, Ill.) in blocking solutions. Proteins were visualized by autoradiography (exposed for 1-2 days at −70° C.).
The p210^bcr-abl, protein immunoprecipitates were washed twice with HTNG buffer Immunoprecipitates were washed once with 50 mM Tris (pH 7.0) and distributed to each reaction in 20 μl of 20 mM PIPES [piperazine-N,N′-bis(ethanesulfonic acid)] (pH 7.0)−20 mM MnCl2. Then, 10 μl of compounds made according to the present invention at desired concentrations from working stock solution prepared in 20 mM PIPEs (pH 7.0)−20 mM MnCl2 were added to each reaction tube. Reactions were initiated with the addition of 10 μl of [γ-^33P]ATP (10 μCi per sample, 3000 Ci/mmol; Amersham), incubated for 20 minutes at 30° C., stopped by addition of 10 μl of 5×SDS sample buffer, heated at 100° C. for 5 minutes, and analyzed on 4-20% SDS-PAGE and by autoradiography.
To assess the effect of drugs added in vitro on the state of p210^bcr-abl in the immune complexes, K562 cells were labeled with ^32P, lysed in PLC buffer and immune complexes containing ^32P-labeled p210^bcr-abl were collected on protein Sepharose beads and beads were washed four times with HNTG buffer. Immune complexes were divided into several tubes in 30 μl of PLC buffer in the presence of compounds made as described herein.

Experiment [1] relates to panel of approximately 60 different human tumor cell lines. Put plainly: National Cancer Institute drug screen, mean-graph parameters. Format: cell-based. The following applies: mean over cell line panel, two days exposure; for GI50: Homo sapiens, 48 h. The procedure:
Compounds of the present invention also have been subjected to the drug screening procedure employed by the National Cancer Institute for the screening of drugs having possible anticancer utility. The screening procedure uses a diverse, disease-oriented panel consisting of approximately 60 different human tumor cell lines organized into disease-specific subpanels. The compounds of the present invention were tested over a range of concentrations for cytotoxic or growth-inhibitory effects against cell lines comprising the panel. The eight subpanels represented diverse histologies (leukemias, melanomas, and tumors of the lung, colon, kidney, breast, ovary, and brain).
Compounds of the present invention were tested over a period of two days. During this period the cells were continuously exposed to various concentrations of the compounds tested. The tests produced individual dose-responses, one for each cell line (i.e. one for each example), and the data were represented in dose-response curves. The data provided by these dose response curves were summarized using a mean-graph format.
To produce data for the mean-graph format, a compound concentration that produced a target level response was calculated for each cell line. Three different response parameters were evaluated. The first response parameter was the growth inhibition (“GI50”). GI50 is the concentration of compounds made according to the present invention that produced an apparent 50% decrease in the number of tumor cells relative to the appropriate control (not exposed to the compounds of the present invention) at the end of the incubation period.
The second response parameter was the total growth inhibition (“TGI”). TGI is the concentration at which the number of tumor cells remaining at the end of the incubation period substantially equal the number of tumor cells existing at the start of the incubation period.
The third response parameter was the lethal concentration (“LC50”) LC50 is the concentration of compounds made according to the present invention that caused an apparent 50 percent reduction in the number of tumor cells […] at the start of the incubation period.
In a typical GI50 mean graph, the relative position of the vertical reference line along the horizontal concentration axis was obtained by averaging the negative log10GI50 values for all the cell lines tested against the compound. Horizontal bars were then plotted for the individual negative log10GI50 values of each cell line relative to the vertical reference line. The GI50 graph thus provided a characteristic fingerprint for the compound, displaying the individual cell lines that are proportionately more sensitive than average (bars extending to the right of the reference line) or proportionately less sensitive than average (bars extending to the left of the reference line). The length of a bar was proportional to the difference between the log10GI50 value obtained with the particular cell line and the mean (represented by the vertical reference line).
Similar mean graphs were prepared for the TGI and LC50 response parameters.

Where [2] appears, read: Homo sapiens, 144 h, Table 8, mean+S.E., read-out: IC50 (μM) 6 dMTT.
Where [3] appears, read: Homo sapiens, 144 h, Table 9, mean ± S.E., read-out: IC50 (μM) 6dMTT.
[4] abbreviates: Table 9, read-out: Tumor cell Mean log GI50 (converted).
The mark [5] stands for this setting: Homo sapiens, 144 h, Table 10, mean ± S.E., read-out: IC50 (μM) 6dMTT.
The mark [6] stands for this setting: Table 10, read-out: Tumor Cell Mean log GI50 (converted).

Where two headings read alike, the source gives them in different places.

T1 sequence (P00519 with tags, fused parts or gaps): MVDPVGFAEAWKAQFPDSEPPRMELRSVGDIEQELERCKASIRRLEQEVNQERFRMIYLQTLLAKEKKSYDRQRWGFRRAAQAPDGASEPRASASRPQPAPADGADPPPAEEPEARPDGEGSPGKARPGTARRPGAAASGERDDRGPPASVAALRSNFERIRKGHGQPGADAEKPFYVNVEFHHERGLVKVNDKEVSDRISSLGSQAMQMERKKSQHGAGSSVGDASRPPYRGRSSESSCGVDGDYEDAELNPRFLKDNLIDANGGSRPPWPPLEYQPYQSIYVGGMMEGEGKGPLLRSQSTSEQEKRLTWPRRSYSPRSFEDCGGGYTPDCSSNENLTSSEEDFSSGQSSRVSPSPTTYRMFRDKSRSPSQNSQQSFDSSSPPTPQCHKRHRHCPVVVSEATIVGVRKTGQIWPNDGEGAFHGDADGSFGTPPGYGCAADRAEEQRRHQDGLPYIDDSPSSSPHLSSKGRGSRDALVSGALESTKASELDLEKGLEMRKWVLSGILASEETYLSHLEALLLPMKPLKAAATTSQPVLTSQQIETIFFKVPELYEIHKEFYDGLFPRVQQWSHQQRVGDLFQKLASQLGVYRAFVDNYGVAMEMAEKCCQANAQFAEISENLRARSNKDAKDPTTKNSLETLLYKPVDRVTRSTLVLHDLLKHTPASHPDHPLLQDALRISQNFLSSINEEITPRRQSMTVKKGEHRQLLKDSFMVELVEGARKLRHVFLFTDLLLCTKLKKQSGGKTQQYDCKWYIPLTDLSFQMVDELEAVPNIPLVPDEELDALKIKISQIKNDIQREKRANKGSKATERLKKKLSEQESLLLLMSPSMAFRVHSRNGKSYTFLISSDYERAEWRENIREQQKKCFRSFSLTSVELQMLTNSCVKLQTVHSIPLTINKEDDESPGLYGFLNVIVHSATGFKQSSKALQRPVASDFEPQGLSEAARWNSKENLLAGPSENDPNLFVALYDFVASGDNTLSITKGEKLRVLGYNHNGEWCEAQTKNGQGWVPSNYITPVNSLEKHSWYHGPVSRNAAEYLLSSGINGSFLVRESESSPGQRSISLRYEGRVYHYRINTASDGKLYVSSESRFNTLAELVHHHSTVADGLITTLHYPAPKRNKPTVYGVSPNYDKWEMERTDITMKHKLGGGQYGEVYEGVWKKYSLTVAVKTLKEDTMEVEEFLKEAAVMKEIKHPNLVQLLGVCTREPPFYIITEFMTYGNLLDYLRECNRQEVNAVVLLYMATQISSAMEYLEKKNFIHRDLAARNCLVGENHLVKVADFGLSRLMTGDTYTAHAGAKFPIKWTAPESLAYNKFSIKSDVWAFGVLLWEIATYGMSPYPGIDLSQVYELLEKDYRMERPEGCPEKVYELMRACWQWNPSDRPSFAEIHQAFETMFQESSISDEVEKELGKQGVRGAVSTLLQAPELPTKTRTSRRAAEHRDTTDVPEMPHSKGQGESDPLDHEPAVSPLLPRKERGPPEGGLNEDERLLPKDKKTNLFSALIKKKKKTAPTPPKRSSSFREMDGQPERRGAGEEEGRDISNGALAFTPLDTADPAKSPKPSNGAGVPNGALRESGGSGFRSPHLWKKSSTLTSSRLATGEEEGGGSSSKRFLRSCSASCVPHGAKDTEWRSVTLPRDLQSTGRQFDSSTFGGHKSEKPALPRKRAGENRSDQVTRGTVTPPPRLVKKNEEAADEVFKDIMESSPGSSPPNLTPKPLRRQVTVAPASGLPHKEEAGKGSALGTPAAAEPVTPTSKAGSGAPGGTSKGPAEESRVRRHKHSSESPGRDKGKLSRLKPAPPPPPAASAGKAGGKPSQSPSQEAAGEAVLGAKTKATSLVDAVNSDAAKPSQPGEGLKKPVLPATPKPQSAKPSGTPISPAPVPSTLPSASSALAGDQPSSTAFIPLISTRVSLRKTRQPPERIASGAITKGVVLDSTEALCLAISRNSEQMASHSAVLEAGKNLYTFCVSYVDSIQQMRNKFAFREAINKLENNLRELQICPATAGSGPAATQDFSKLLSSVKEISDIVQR

Usually IC50 stands for the point on the concentration scale where inhibition reaches its midpoint. Take `Oc1ccc(O)c(CNc2ccc(C(O)C(F)(F)F)cc2)c1` (stereo not drawn) [CH(OH)CF3 / H / H, 4′-(trifluoromethylethanol)-1′-N-2,5-dihydroxybenzylamine]: the IC50 with K562 cells (setting [2]) came to 14.3 µM. In addition, the IC50 at p210^bcr-abl (Table 8, mean+S.E.) is 0.57 µM. Also, in experiment [1] (Table 8), the “Tumor Cell Mean log GI50” value was −4.82 and the “Tumor Cell Mean log TGI” value is given as −4.34.
Taken in the same sequence, the figures for `CC(=O)c1ccc(NCc2cc(O)ccc2O)cc1` [Compound 17, 4′-acetophenone-1′-N-2,5-dihydroxybenzylamine] were 13 µM, 1.03 µM, −4.72 and −4.25.
In general, GI50 refers to the concentration giving 50% growth inhibition. Regarding `COC(=O)c1ccc(NCC2=CC(=O)C=CC2=O)cc1` [COOCH3 / H / 2,5-quinoyl], the IC50 was 15.1 ± 1.28 µM with K562 cells (setting [3]) and 15.9 ± 2.91 µM at p210^bcr-abl (Table 9, mean ± S.E.). Also, in experiment [1] (setting [4]), the GI50 was 2.51 µM. Further, the “Tumor Cell Mean log TGI” value in experiment [1] (Table 9) is −4.8.
Taken in the same sequence, the figures for `COC(=O)c1ccc(NCC2=C(Br)C(=O)C=CC2=O)cc1Cl` [Compound 25, 3′-chloro-4′-methylbenzoate-1′-N-2-bromo-p-quinone-3-methyl amine] were 17.5 ± 0.1 µM, 2.35 ± 0.41 µM, 21.9 µM and −4.34.
As to `COC(=O)c1ccc(CCc2cc(O)ccc2O)cc1`, the IC50 was 18.5 ± 5.62 µM in the experiment on K562 cells (setting [5]) and 2.64 ± 0.99 µM on p210^bcr-abl (Table 10, mean ± S.E.). The GI50 in experiment [1] (setting [6]) is 10 µM. Besides, in experiment [1] (Table 10), the “Tumor Cell Mean log TGI” value is listed as −4.43.
Take `COC(=O)c1ccc(NCc2cc(O)ccc2O)cc1` [COOCH3 / H / H, reference compound]: the IC50 in the experiment on K562 cells (Table 8, mean+S.E., read-out: IC50 (μM) 6 dMTT) came to 16.6 µM. The IC50 at p210^bcr-abl (Table 8, mean+S.E.) was 2.9 µM. Moreover, in experiment [1] (Table 8), the “Tumor Cell Mean log GI50” value is reported as −4.95 and the “Tumor Cell Mean log TGI” value was −4.52.
Take `O=C1C=CC(=O)C(CNc2ccc(C(=O)OCc3ccccc3)cc2)=C1` [COOCH2—C6H6 / H / 2,5-quinoyl]: the IC50 amounted to 22.8 ± 18 µM in the experiment with K562 cells (setting [3]) and 8.75 ± 1.25 µM at p210^bcr-abl (Table 9, mean ± S.E.). Besides, in experiment [1] (setting [4]), the GI50 is 5.01 µM. In experiment [1] (Table 9), the “Tumor Cell Mean log TGI” value is listed as −4.78.
As for `CC(C)OC(=O)c1ccc(CCc2cc(O)c(Br)cc2O)cc1`, the IC50 in the experiment with K562 cells (setting [5]) came out at 20 ± 0.7 µM; at p210^bcr-abl (Table 10, mean ± S.E.), 5.77 ± 0.53 µM. Further, the GI50 in experiment [1] (setting [6]) was 7.59 µM. Moreover, the “Tumor Cell Mean log TGI” value in experiment [1] (Table 10) is reported as −4.50.
As for `O=C(O)c1ccc(CCc2cc(O)ccc2O)cc1O`, the IC50 in the experiment with K562 cells (Table 10, mean ± S.E., read-out: IC50 (μM) 6dMTT) worked out at 33.4 ± 4.8 µM; at p210^bcr-abl (Table 10, mean ± S.E.), 13 ± 1.03 µM. Moreover, the “Tumor Cell Mean log GI50” value in experiment [1] (Table 10) is −4.06. Besides, the “Tumor Cell Mean log TGI” value in experiment [1] (Table 10) is −4.01.
As for `COC(=O)c1ccc(NCC2=CC(=O)C=CC2=O)cc1O` [Compound 20, 3′-hydroxy-4′-methylbenzoate-1′-N-p-quinone-2-methyl amine], the IC50 was found to be 17 ± 0.3 µM with K562 cells (setting [3]) and 5.15 ± 1.01 µM at p210^bcr-abl (Table 9, mean ± S.E.). In experiment [1] (setting [4]), the GI50 was 17 µM. In addition, the “Tumor Cell Mean log TGI” value in experiment [1] (Table 9) is recorded as −4.36.
Taken in the same sequence, the figures for `CC(C)(C)OC(=O)c1ccc(NCC2=CC(=O)C=CC2=O)cc1` [COOC(CH3)3 / H / 2,5-quinoyl] were 25.4 ± 1.88 µM, 25.9 ± 9.02 µM, 8.13 µM and −4.67.
On to `O=C1C=CC(=O)C(CNc2ccc(C(=O)OC34CC5CC(CC(C5)C3)C4)cc2)=C1Br` [Compound 23, 4′-adamantylbenzoate-1′-N-2-bromo-p-quinone-3-methyl amine], for which the half-maximal inhibitory concentration (IC50) in the experiment with K562 cells (setting [3]) came out at 24.8 ± 3.1 µM; at p210^bcr-abl (Table 9, mean ± S.E.) it was 2.38 ± 0.45 µM. Also, the 50% growth inhibitory concentration (GI50) in experiment [1] (setting [4]) was 7.59 µM. Moreover, in experiment [1] (Table 9), the “Tumor Cell Mean log TGI” value is −4.60.
